Results from patent US20100298141A1, “SUBSTITUTED PYRIDINE N-OXIDE HERBICIDES” (E. I. DU PONT DE NEMOURS AND COMPANY, priority 2007, published 2010).

Columns and labels:
catchweed bedstraw = assay: Test C pre-/postemergence test; format: in vivo, Galium aparine; conditions: Preemergence; for Galium plant response rating: 62 g ai/ha, scale 0 to 100; for Plant response rating, Galium: 31 g ai/ha, scale 0 to 100 (0 no effect, 100 complete control); for Plant response rating (0 to 100), Galium: 250 g ai/ha
Method in brief: (§1)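 Compounds in a non-phytotoxic solvent with surfactant applied preemergence to seeded pots and, at the same time, postemergence to plants 2–18 cm tall (1- to 4-leaf stage). Paddy tests: pots flooded to 3 cm, compound applied into the water, depth held throughout.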

morningglory [1] = assay: Test A pre-/postemergence greenhouse test; format: in vivo, Ipomoea spp.; conditions: for Morningglory plant response rating: 0 to 100 scale; for Plant response rating, Morningglory: 0 to 100 scale where 0 is no effect and 100 is complete control
Method in brief: (§2)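 Visual injury ratings against untreated controls, taken roughly ten days after treatment in greenhouse. Plants were sprayed postemergence at one- to two-leaf stage (2–10 cm tall); at the same time, seeded loam/sand soil received a directed preemergence spray. Formulation: non-phytotoxic solvent mixture with surfactant.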

Goosegrass = assay: Test C pre-/postemergence test; format: in vivo, Eleusin indica; conditions: Preemergence; for Goosegrass plant response rating: 62 g ai/ha, scale 0 to 100; for Plant response rating, Goosegrass: 31 g ai/ha, scale 0 to 100 (0 no effect, 100 complete control); for Plant response rating (0 to 100), Goosegrass: 250 g ai/ha
Method in brief: as §1

soybean = assay: Test C pre-/postemergence test; format: in vivo, Glycine max; conditions: Preemergence; for Soybean plant response rating: 62 g ai/ha, scale 0 to 100; for Plant response rating, Soybean: 31 g ai/ha, scale 0 to 100 (0 no effect, 100 complete control)
Method in brief: as §1

bermudagrass = assay: Test C pre-/postemergence test; format: in vivo, Cynodon dactylon; conditions: for Plant response rating, Bermudagrass: 31 g ai/ha; for Plant response rating (0 to 100), Bermudagrass: 250 g ai/ha
Method in brief: as §1

pigweed = assay: Test C pre-/postemergence test; format: in vivo, Amaranthus retroflexus; conditions: Preemergence; for Pigweed plant response rating: 62 g ai/ha, scale 0 to 100; for Plant response rating, Pigweed: 31 g ai/ha, scale 0 to 100 (0 no effect, 100 complete control)
Method in brief: as §1

yellow nutsedge = assay: Test C pre-/postemergence test; format: in vivo, Cyperus esculentus; conditions: Preemergence; for Nutsedge, Yellow plant response rating: 62 g ai/ha, scale 0 to 100; for Plant response rating, Nutsedge, Yellow: 31 g ai/ha, scale 0 to 100 (0 no effect, 100 complete control)
Method in brief: as §1

wheat [2] = assay: Test C pre-/postemergence test; format: in vivo, Triticum aestivum; conditions: Preemergence; for Wheat plant response rating: 62 g ai/ha, scale 0 to 100; for Plant response rating, Wheat: 31 g ai/ha, scale 0 to 100 (0 no effect, 100 complete control)
Method in brief: as §1

umbrella sedge = assay: Test C flooded paddy test; format: in vivo, Cyperus difformis; conditions: Flood
Method in brief: (§3)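 Pots were flooded to 3 cm above the soil surface at treatment, compound applied directly to the paddy water, and that depth held throughout. Plants were kept in a greenhouse for 13 to 15 days, then visually rated against untreated controls.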

[3] = test system: common (oilseed) sunflower; assay: Test C pre-/postemergence test; format: in vivo, Helianthus annuus; conditions: Preemergence; for Sunflower plant response rating: 62 g ai/ha, scale 0 to 100; for Plant response rating, Sunflower: 31 g ai/ha, scale 0 to 100 (0 no effect, 100 complete control)
Method in brief: as §1

Italian ryegrass = assay: Test C pre-/postemergence test; format: in vivo, Lolium multiflorum; conditions: Preemergence; for Ryegrass, Italian plant response rating: 62 g ai/ha, scale 0 to 100; for Plant response rating, Ryegrass, Italian: 31 g ai/ha, scale 0 to 100 (0 no effect, 100 complete control)
Method in brief: as §1

morningglory [4] = assay: Test C pre-/postemergence test; format: in vivo, Ipomoea coccinea; conditions: Preemergence; for Morningglory plant response rating: 62 g ai/ha, scale 0 to 100; for Plant response rating, Morningglory: 31 g ai/ha, scale 0 to 100 (0 no effect, 100 complete control)
Method in brief: as §1

barnyardgrass = assay: Test C flooded paddy test; format: in vivo, Echinochloa crus-galli; conditions: Flood
Method in brief: as §3

wheat [5] = assay: Test A pre-/postemergence greenhouse test; format: in vivo, Triticum aestivum; conditions: for Wheat plant response rating: 0 to 100 scale; for Plant response rating, Wheat: 0 to 100 scale where 0 is no effect and 100 is complete control
Method in brief: as §2

giant foxtail = assay: Test A pre-/postemergence greenhouse test; format: in vivo, Setaria faberi; conditions: for Foxtail, Giant plant response rating: 0 to 100 scale; for Plant response rating, Foxtail, Giant: 0 to 100 scale where 0 is no effect and 100 is complete control
Method in brief: as §2

crabgrass = assay: Test A pre-/postemergence greenhouse test; format: in vivo, Digitaria sanguinalis; conditions: for Crabgrass, Large plant response rating: 0 to 100 scale; for Plant response rating, Crabgrass, Large: 0 to 100 scale where 0 is no effect and 100 is complete control
Method in brief: as §2

corn = assay: Test A pre-/postemergence greenhouse test; format: in vivo, Zea mays; conditions: for Corn plant response rating: 0 to 100 scale; for Plant response rating, Corn: 0 to 100 scale where 0 is no effect and 100 is complete control
Method in brief: as §2

[6] = Postemergence, 125 g ai/ha, 0 is no effect, 100 is complete control
[7] = Postemergence, 500 g ai/ha, 0 is no effect, 100 is complete control
[8] = Preemergence, 125 g ai/ha, 0 no effect, 100 complete control
[9] = 62 g ai/ha, Preemergence, scale 0 to 100 (0 no effect, 100 complete control)
[10] = Preemergence, scale 0 to 100 (0 no effect, 100 complete control)
[11] = preemergence, 125 g ai/ha, scale 0 (no effect) to 100 (complete control)
[12] = 31 g ai/ha, scale 0 to 100 (0 no effect, 100 complete control)
[13] = 62 g ai/ha, scale 0 to 100, 0 no effect, 100 complete control, 13 to 15 days
[14] = 125 g ai/ha, scale 0 to 100, 0 no effect, 100 complete control, 13 to 15 days
[15] = 250 g ai/ha, scale 0 to 100, 0 no effect, 100 complete control, 13 to 15 days
[16] = 250 g ai/ha, scale 0 to 100 (0 no effect, 100 complete control)

## Cn1nc(C(F)(F)F)c(CS(=O)(=O)c2ccc(Cl)c[n+]2[O-])c1Cl [Compound 18]
Catchweed bedstraw
  Galium plant response rating: 0
  Plant response rating, Galium: 0
  Plant response rating (0 to 100), Galium: 90
Morningglory [1]; [6]
  Morningglory plant response rating: 0
Morningglory [1]; [7]
  Morningglory plant response rating: 20
Morningglory [1]; [8]
  Morningglory plant response rating: 0
Morningglory [1]; Preemergence, 500 g ai/ha
  Plant response rating, Morningglory: 20
Goosegrass
  Goosegrass plant response rating: 100
  Plant response rating, Goosegrass: 90
  Plant response rating (0 to 100), Goosegrass: 100
soybean
  Soybean plant response rating: 0
  Plant response rating, Soybean: 0
bermudagrass; [9]
  Bermudagrass plant response rating: 100
bermudagrass; [10]
  Plant response rating, Bermudagrass: 90
bermudagrass; Preemergence
  Plant response rating (0 to 100), Bermudagrass: 100
bermudagrass; [11]
  Bermudagrass plant response rating: 100
pigweed
  Pigweed plant response rating: 100
  Plant response rating, Pigweed: 100
Yellow nutsedge
  Nutsedge, Yellow plant response rating: 0
  Plant response rating, Nutsedge, Yellow: 0
Wheat [2]
  Wheat plant response rating: 0
  Plant response rating, Wheat: 0
Umbrella sedge; [12]
  Plant response rating, Sedge, Umbrella: 0
Umbrella sedge; [13]
  Plant response rating, Sedge, Umbrella: 0
Umbrella sedge; [14]
  Plant response rating, Sedge, Umbrella: 80
Umbrella sedge; [15]
  Plant response rating, Sedge, Umbrella: 85
[3]
  Sunflower plant response rating: 0
  Plant response rating, Sunflower: 0
Italian ryegrass
  Ryegrass, Italian plant response rating: 0
  Plant response rating, Ryegrass, Italian: 0
Morningglory [4]
  Morningglory plant response rating: 0
  Plant response rating, Morningglory: 0
barnyardgrass; [12]
  Plant response rating, Barnyardgrass: 0
barnyardgrass; [13]
  Plant response rating, Barnyardgrass: 30
barnyardgrass; [14]
  Plant response rating, Barnyardgrass: 75
barnyardgrass; [16]
  Plant response rating, Barnyardgrass: 85
Wheat [5]; [6]
  Wheat plant response rating: 0
Wheat [5]; [7]
  Wheat plant response rating: 30
Wheat [5]; [8]
  Wheat plant response rating: 0
Wheat [5]; Preemergence, 500 g ai/ha
  Plant response rating, Wheat: 20
Giant foxtail; [6]
  Foxtail, Giant plant response rating: 60
Giant foxtail; [7]
  Foxtail, Giant plant response rating: 80
Giant foxtail; [8]
  Foxtail, Giant plant response rating: 90
Giant foxtail; Preemergence, 500 g ai/ha
  Plant response rating, Foxtail, Giant: 100
crabgrass; [6]
  Crabgrass, Large plant response rating: 60
crabgrass; [7]
  Crabgrass, Large plant response rating: 80
crabgrass; [8]
  Crabgrass, Large plant response rating: 80
crabgrass; Preemergence, 500 g ai/ha
  Plant response rating, Crabgrass, Large: 90
corn; [6]
  Corn plant response rating: 0
corn; [7]
  Corn plant response rating: 50
corn; [8]
  Corn plant response rating: 0
corn; Preemergence, 500 g ai/ha
  Plant response rating, Corn: 0

## Cc1cc[n+]([O-])c(S(=O)(=O)Cc2c(C(F)(F)F)nn(C)c2Cl)c1 [Compound 19]
Catchweed bedstraw
  Galium plant response rating: 100
  Plant response rating, Galium: 85
  Plant response rating (0 to 100), Galium: 100
Morningglory [1]; [6]
  Morningglory plant response rating: 20
Morningglory [1]; [7]
  Morningglory plant response rating: 30
Morningglory [1]; [8]
  Morningglory plant response rating: 60
Morningglory [1]; Preemergence, 500 g ai/ha
  Plant response rating, Morningglory: 80
Goosegrass
  Goosegrass plant response rating: 100
  Plant response rating, Goosegrass: 100
  Plant response rating (0 to 100), Goosegrass: 100
soybean
  Soybean plant response rating: 0
  Plant response rating, Soybean: 0
bermudagrass; [9]
  Bermudagrass plant response rating: 100
bermudagrass; [10]
  Plant response rating, Bermudagrass: 85
bermudagrass; Preemergence
  Plant response rating (0 to 100), Bermudagrass: 100
bermudagrass; [11]
  Bermudagrass plant response rating: 100
pigweed
  Pigweed plant response rating: 100
  Plant response rating, Pigweed: 80
Yellow nutsedge
  Nutsedge, Yellow plant response rating: 70
  Plant response rating, Nutsedge, Yellow: 40
Wheat [2]
  Wheat plant response rating: 0
  Plant response rating, Wheat: 0
Umbrella sedge; [12]
  Plant response rating, Sedge, Umbrella: 0
Umbrella sedge; [13]
  Plant response rating, Sedge, Umbrella: 0
Umbrella sedge; [14]
  Plant response rating, Sedge, Umbrella: 70
Umbrella sedge; [15]
  Plant response rating, Sedge, Umbrella: 95
[3]
  Sunflower plant response rating: 0
  Plant response rating, Sunflower: 0
Italian ryegrass
  Ryegrass, Italian plant response rating: 30
  Plant response rating, Ryegrass, Italian: 0
Morningglory [4]
  Morningglory plant response rating: 60
  Plant response rating, Morningglory: 0
barnyardgrass; [12]
  Plant response rating, Barnyardgrass: 0
barnyardgrass; [13]
  Plant response rating, Barnyardgrass: 0
barnyardgrass; [14]
  Plant response rating, Barnyardgrass: 30
barnyardgrass; [16]
  Plant response rating, Barnyardgrass: 75
Wheat [5]; [6]
  Wheat plant response rating: 0
Wheat [5]; [7]
  Wheat plant response rating: 50
Wheat [5]; [8]
  Wheat plant response rating: 40
Wheat [5]; Preemergence, 500 g ai/ha
  Plant response rating, Wheat: 70
Giant foxtail; [6]
  Foxtail, Giant plant response rating: 50
Giant foxtail; [7]
  Foxtail, Giant plant response rating: 80
Giant foxtail; [8]
  Foxtail, Giant plant response rating: 80
Giant foxtail; Preemergence, 500 g ai/ha
  Plant response rating, Foxtail, Giant: 100
crabgrass; [6]
  Crabgrass, Large plant response rating: 40
crabgrass; [7]
  Crabgrass, Large plant response rating: 80
crabgrass; [8]
  Crabgrass, Large plant response rating: 70
crabgrass; Preemergence, 500 g ai/ha
  Plant response rating, Crabgrass, Large: 100
corn; [6]
  Corn plant response rating: 0
corn; [7]
  Corn plant response rating: 50
corn; [8]
  Corn plant response rating: 30
corn; Preemergence, 500 g ai/ha
  Plant response rating, Corn: 50
